Laboratory results from US6531512B1, “Method of treating cancer in patients having a deficiency in p53 tumor suppressor gene” (Health Research Inc., priority 1998, dated 2003).
Entries after “also recorded” stand apart in the source; their conditions may differ.

Legend:
[1] = test system: MALME-3M human melanoma cells; assay: Cell cycle distribution of MALME-3M cells by flow cytometry; format: cell-based
Protocol: MALME-3M cells were cultured as described in Example 1 and treated with 10 μM DENSPM as described in Example 2. Cell cycle arrest was monitored using a FACScan flow cytometry unit (Becton Dickinson, San Jose, Calif.) according to the method of Krishan (1975) J. Cell Biol. 66:[…]. Untreated MALME-3M cell cultures were used as controls.
Cell cycle arrest of serum synchronized MALME-3M cells was also monitored using flow cytometry. MALME-3M cells were synchronized in G0/G1 by replacing cell culture media containing 10% NuSerum (see Example 1) with media lacking NuSerum and incubating the cultures for 120 hours. The synchronized cells were released by the addition of 10% NuSerum (control culture) or 10% NuSerum plus 10 μM DENSPM. The cells were then grown continuously in the presence of serum (control) or DENSPM for up to 96 hours. The untreated cells (control) re-established an asynchronous profile (i.e., progressed through the cell cycle) by 60 hours.
(§1) The effect of DENSPM and spermine on cell growth was monitored using a Coulter Counter (see Example 2). The effect on cell cycle was monitored by flow cytometry as described in Example 3.

[2] = test system: ornithine decarboxylate (ODC); assay: Polyamine enzyme activity in treated melanoma cells: ODC; format: cell-based, human; conditions: for ODC activity: 10 μM
Protocol: (§2) MALME-3M human melanoma cells were cultured as described in Example 1 and treated with 10 μM DENSPM or 10 μM spermine (SPM) as described in Example 4. SK-MEL-28 cells were also cultured as described in Example 1 and treated with 10 μM DENSPM as describe in Example 4. Untreated cells were used as a control.
(§3) After treatment with DENSPM or spermine, biochemical parameters including polyamine enzymes activity, polyamine pools and analog accumulation were monitored as described by Kramer et al, J. Biol. Chem., 270:2124-32 (1995) and Kramer et al., Cancer Res., 57:5521-5527 (1997). Polyamine enzyme activity was monitored for ornithine […] (ODC); S-adenosylmethionine decarboxylase (SAMDC); and spermidine/spermine N^1-acetyltransferase (SSAT). Polyamine pools was monitored for putrescine (Put); spermidine (Spd); and spermine (Spm).
(§4) Enzyme activity and polyamine pools were measured as described in Example 5.

[3] = test system: cell cycle regulatory proteins, including p53, p21, p27, ppRb, pRb, cyclin D1 and PCNA; assay: Western blot of cell cycle regulatory proteins in MALME-3M cells; format: cell-based, human; conditions: 10 μM
Protocol: MALME-3M and SK-MEL-28 cells cultured as described in Example 4 were treated with 10 μM DENSPM for 0 to 48 hours. Western blot analysis of cell cycle regulatory proteins, including p53, p21, p27, ppRb, pRb, cyclin D1 and PCNA was performed following the procedure described by Fogel-Petrovic et al. in Molec. Pharm, 52:69-74 (1997); and Biochemistry, 35:14436-14444 (1996). Antibodies used for detecting the proteins were obtained commercially as follows: p53 from Santa Cruz Biotechnology, Inc. (Santa Cruz, Calif.); PCNA and Cyclin D1 from Oncogene Research Products (Cambridge, Mass.); Rb and p21 from PharMigen (San Diego, Calif.); p27 from Transduction labs (Lexington, Ky.) and β-actin (used to correct for variations in loading) from Sigma Chemical Co. (St. Louis, Mo.). Western blot analysis of each of these proteins was performed at least three times.

[4] = test system: SK-MEL-28 human melanoma cells; assay: Cell growth / apoptotic response of SK-MEL-28 cells (Coulter Counter, growth kinetics); format: cell-based
Protocol: (§5) MALME-3M human melanoma cells containing wt-p53 (American Tissue Type Culture Collection, Bethesda, Md.) and human SK-MEL-28 cells containing mt-p53 (American Tissue Type Culture Collection, Bethesda, Md.) were cultured as a monolayer in RPMI 1640 medium containing 10% Nu-Serum (Collaborative Research Products, Bedford, Mass.), 1 mM aminoguanidine, penicillin (50 units/ml) and streptomycin (50 μg/ml) as described by Kramer et al, J. Biol. Chem., 270:2124-32 (1995) and Kramer et al., Cancer Res., 57:5521-5527 (1997).
(§6) MALME-3M cells were cultured as described in Example 1. The cells were seeded by adding 1×10^5 cells to a T-25 vented cell culture flask. After 24 hours, the asynchronous cell cultures were treated with 10 μM N^1, N^11-diethylnorspermine (DENSPM) prepared by dissolving DENSPM in distilled water and sterilizing the solution by filtration through a 0.22 micron Millipore membrane. The cells were treated by continuous exposure to DENSPM for 6 days (i.e., the polyamine was added to the cell culture at T=0 and the culture was incubated for the desired amount of time). The number of viable MALME-3M cells were monitored electronically using a Model ZM Coulter Counter (Coulter Electronics, Hialeah, Fla.). Untreated MALME-3M cell cultures were used as controls.
(§7) MALME-3M human melanoma cells were cultured as described in Example 1 and treated continuously with 10 μM DENSPM or 10 μM spermine (SPM) for 48 hours. SK-MEL-28 cells were also cultured as described in Example 1 and treated with 10 μM DENSPM for 24 hours. Untreated cells were used as a control.
The effect of DENSPM and spermine on cell growth was monitored using a Coulter Counter (see Example 2). The effect on cell cycle was monitored by flow cytometry as described in Example 3. […]

[5] = test system: MALME-3M human melanoma cells; assay: Cell growth of MALME-3M cells (Coulter Counter); format: cell-based; conditions: 10 μM
Protocol: as §5, §6, §7, §1

[6] = test system: SK-MEL-28 human melanoma cells; assay: Polyamine pools and analog accumulation in SK-MEL-28 cells; format: cell-based
Protocol: as §2, §3, §4

[7] = MALME-3M (wt-p53), Table 2 (24 hours treatment)
[8] = SK-MEL-28 cells, 24 hours, Table 4
[9] = SK-MEL-28 (mt-p53), 10 μM, Table 2, 24 hours

`CCNCCCNCCCNCCCNCC` [DENSPM, N^1,N^11-diethylnorspermine] was tested, and the “% Total Cells at 48 hours, G1” value ([1]; MALME-3M (wt-p53), asynchronous, 10 μM, 48 hours) was 88%, the “cell cycle distribution of serum synchronized cells” value ([1]; MALME-3M synchronized in G0/G1, released with serum plus 10 μM, up to 96 hours) was “accumulated in the G1 and G2/M phases of the cycle but not in S phase” and the “onset of G1 arrest after treatment” value ([1]; MALME-3M, asynchronous, 10 μM) was “about 16 hours”. The ODC activity [2, 7] was 30 pmol/hr/mg protein, the ODC activity ([2]; SK-MEL-28 (mt-p53), Table 2, 24 hours) was 5 pmol/hr/mg protein and the “Enzyme Activities, ODC” value [2, 8] was 37 pmol/hr/mg protein. For the same compound, the “appearance of the hypophosphorylated Rb (pRb) protein band” value [3] was “about 16 hours”, the “start of increase in p21” value [3] was “about 12 hours” and the “start of increase in wild type p53” value [3] was “about 12 hours”. The “time of p21 maximum” value [3] was 30 h, the “time of p53 maximum” value [3] was 30 h and the “protein levels of PCNA” value ([3]; 0 to 48 hours) was “unaffected”. The “p21 protein increase relative to zero treatment time (densitometry, normalized to β-actin)” value ([3]; 30 hour peak) was 5 fold, the “p53 protein increase relative to zero treatment time (densitometry, normalized to β-actin)” value ([3]; 30 hour peak) was 10 fold and the “levels of p130, cyclin D1 and cyclin E” value ([3]; 48 hour time course (data not shown)) was “relatively constant”. The “Rb phosphorylation state by 48 hours” value ([3]; 48 hours) was “pRb was the only species”, the p27 maximum induction ([3]; at 24 to 30 hours) was “about 1.5 fold” and the “% Growth Control” value [4, 9] was 26%. For the same compound, the “% Control Growth” value [4, 8] was 30%, the “cell growth and/or apoptosis response” value ([4]; SK-MEL-28 cells, growth kinetic analysis) was “massive and rapid apoptotic response; also recorded: rapid cytotoxic response” and the “% Control Growth” value ([5]; MALME-3M (wt-p53), 48 hours) was 54%. For the same compound, the “% Growth Control” value [5, 7] was 83%, the “time course of viable cell number” value ([5]; MALME-3M, asynchronous, continuous exposure 6 days) was “steady growth for the first 24 hours, then a plateau and then began to decline in number from 48 hours onwards” and the “Polyamine Pools, Put” value [6, 9] was 70 pmol/10^6 cells. The “Polyamine Pools, Spd” value [6, 9] was 20 pmol/10^6 cells, the “Polyamine Pools, Spm” value [6, 9] was 105 pmol/10^6 cells and the “decrease in spermine pools” value ([6]; SK-MEL-28 cells, 24 hours) was 95%. The “Analog (intracellular accumulation)” value [6, 8] was 7710 pmol/10^6 cells, the “Polyamine Pools, Put” value [6, 8] was 115 pmol/10^6 cells and the “Polyamine Pools, Spd” value [6, 8] was 45 pmol/10^6 cells. For the same compound, the “Polyamine Pools, Spm” value [6, 8] was 190 pmol/10^6 cells.
